# Reference: article PMC6397271 (Scientific Reports, 2019)
# Like-named read-outs stand apart in the source and are kept apart here.
# Experiments:
# S. aureus MRSA 12673 = experiment: microbe, parasite or virus in culture; assay type: cell-based, Staphylococcus aureus; settings: for MIC: raw MIC
# Excerpt: (§1) Three bacterial strains of MRSA (N315, 12673, 6347) and two of Enterococcus spp. (E. faecium, E. faecalis) were used. With respect to MRSA, N315 represented a reference Van-susceptible strain (GenBank GCA_00000645.1) isolated from a patient while 12673 (Van-intermediately susceptible) and 6347 (a h-VISA which appears at frequency of <10^−5 to 10^−6 is composed of two subpopulations of bacteria: one susceptible and one intermediately resistant)[38] were clinical strains obtained from patients of The Clinical University Centre of Gdańsk (UCK). […] The clinical strain isolates originated from the collection of the Department of Pharmaceutical Technology and Biochemistry, Faculty of Chemistry, Gdańsk University of Technology.
# (§2) The strains were grown in Mueller-Hinton broth (MH cation-adjusted, Becton Dickinson) or Brain Heart Infusion broth (BHI, Becton Dickinson), respectively. The cultivation was carried out in an aerobic atmosphere at 37 °C for 24 hours and, afterwards, the bacterial cultures were diluted in geometric progression with a proper broth. Next, 100 µl of each dilution was inoculated in an agar plate and incubated at 37 °C for 24 h. The next procedures included determination of Colony Forming Units (CFU)/ml and minimal inhibitory concentration (MIC) of the compounds in question. The latter procedure was carried out according to the microbroth dilution technique using 96-well plates. The MICs were evaluated by using the metabolic assay based on the resazurin dye. The assay was performed in triplicates.
# S. aureus MRSA N315 = experiment: microbe, parasite or virus in culture; assay type: cell-based, Staphylococcus aureus
# Excerpt: as §1, §2
# [1] = test system: S. aureus MRSA hetero-VISA 6347; experiment: microbe, parasite or virus in culture; assay type: cell-based, Staphylococcus aureus
# Excerpt: as §1, §2
# [2] = test system: Enterococcus faecalis 3937158; experiment: microbe, parasite or virus in culture; assay type: cell-based
# Excerpt: as §1, §2
# [3] = test system: Enterococcus faecium 3934825; experiment: microbe, parasite or virus in culture; assay type: cell-based
# Excerpt: as §1, §2
# sheep erythrocytes = experiment: Erythrocyte lysis assay; assay type: cell-based; settings: 37 °C, 1 hour, A450 nm; for cell lysis (haemolysis): 10^8 cells/ml, vs 4% Triton X-100, triplicates
# Description: The protocol of the lysis assay is presented below.
# To obtain sheep erythrocytes, 5 ml of fresh blood was centrifuged at 1000 × g for 10 min and washed 3 times with 0.9% NaCl. Cell suspension (final concentration of 10^8 cells/ml) in a volume of 75 µl was added to each well of the 96-well microtiter plate and incubated at 37 °C in the presence of the tested compounds. The range of their concentrations was 100–0.049 µM (diluted in saline solution), which included that of MIC values for the tested strains of the bacteria.
# Plates with samples were incubated at 37 °C for 1 hour and then centrifuged at 1000 × g for 10 min to separate the unlysed erythrocytes. Next, the supernatant was transferred to a new plate. The absorbance (A) was measured spectrophotometrically at 450 nm of wavelength. The experiments were performed in triplicates.
# The haemolysis percentage was calculated according to the equation presented by Sharma et al.[43]. The percentage of haemolysis = [(A450nm of test compound treated sample-A450nm of buffer treated sample)/(A450nm of 4%TritonX-100 treated samples-A450nm of buffer treated sample)] × 100.
# [4] = test system: bacterial strain not named; experiment: Raw data of the MIC measurement (absorbance); assay type: cell-based; settings: concentration marked (MIC) in raw absorbance data
# Description: as §2
# [5] = BBB penetration, fluorescence microscopy of brain slices; assay type: in vivo, BALB/c male mice; settings: iv tail vein 60 mg/kg, 2 hours, coronal cryo-sections, excitation 490 nm, emission 521 nm, n = 5
# Description: In vivo experiments were performed on BALB/c male mice weighing between 20 and 30 g (the mouse model is widely used for estimation of drug BBB penetration). The animals (obtained from TAZD-CBU) were kept in a 12-hour day and night cycle at room temperature (20–22 °C), humidity 55–56% and fed with a standard diet and water ad libitum for at least 1 week before the experiment. Body temperature and weight were recorded on a regular daily schedule. It is confirmed that all procedures were carried out according to the guidelines outlined by the European Community Council Directive 2010/63/EEC, and they were approved by the local Ethical Committee Resolution 26/2014 (Bydgoszcz, Poland).
# Fl-[Lys^7(PEG4-Van)]TP10 was administered to the mouse (n = 5) tail vein at a dose of 60 mg/kg in a volume of 100 μl of saline.
# After 2 hours, the mice were sacrificed (by isoflurane overdose) and their brains were immediately removed from the cranium and cooled to 4 °C. Five, […] coronal cryo-sections of the brain were made starting from the frontal pole and moving to the occipital pole (HM 450 Sliding Microtome). The presence of the compound in question in the brain slices was visualized using a fluorescence microscope (Delta Optical IB-100, Delta Optical, Poland) at a fluorescence excitation and emission of 490 nm and 521 nm, respectively. […]
# [6] = same test as μM value, mean ± SD
# [7] = microbroth dilution, 96-well, resazurin, 37 °C, 24 h, mean ± SD, at least three independent experiments in triplicates
# [8] = raw MIC, first block, test a, repetition 1, read-out: MIC1a
# [9] = raw MIC, first block, test a, repetition 2, read-out: MIC2a
# [10] = raw MIC, first block, test a, repetition 3, read-out: MIC3a
# [11] = raw MIC, first block, test b, repetition 1, read-out: MIC1b
# [12] = raw MIC, first block, test b, repetition 2, read-out: MIC2b
# [13] = raw MIC, first block, test b, repetition 3, read-out: MIC3b
# [14] = raw MIC, test a, repetition 1, read-out: MIC1a
# [15] = raw MIC, test a, repetition 2, read-out: MIC2a
# [16] = raw MIC, test a, repetition 3, read-out: MIC3a
# [17] = raw MIC, test b, repetition 1, read-out: MIC1b
# [18] = raw MIC, test b, repetition 2, read-out: MIC2b
# [19] = raw MIC, test b, repetition 3, read-out: MIC3b
compound,measurement,setting,value
"CC[C@H](C)[C@H](NC(=O)[C@H](CCCCN)NC(=O)[C@H](CCCCN)NC(=O)[C@H](C)NC(=O)[C@H](CC(C)C)NC(=O)[C@H](C)NC(=O)[C@H](C)NC(=O)[C@H](CC(C)C)NC(=O)[C@H](C)NC(=O)[C@H](CCCCN)NC(=O)[C@H](CC(C)C)NC(=O)[C@H](CC(N)=O)NC(=O)[C@@H](NC(=O)[C@H](CCCCN)NC(=O)CNC(=O)[C@H](CC(C)C)NC(=O)[C@H](CC(C)C)NC(=O)[C@H](Cc1ccc(O)cc1)NC(=O)CNC(=O)[C@H](C)NC(=O)c1cn(CCOCCOCCOCCOCCC(=O)N[C@@]2(C)C[C@H](O[C@H]3[C@H](Oc4c5cc6cc4Oc4ccc(cc4Cl)[C@@H](O)[C@@H](NC(=O)[C@@H](CC(C)C)NC)C(=O)N[C@@H](CC(N)=O)C(=O)N[C@H]6C(=O)N[C@H]4C(=O)N[C@H](C(=O)N[C@H](C(=O)O)c6cc(O)cc(O)c6-c6cc4ccc6O)[C@H](O)c4ccc(c(Cl)c4)O5)O[C@H](CO)[C@@H](O)[C@@H]3O)O[C@@H](C)[C@H]2O)nn1)[C@@H](C)CC)C(=O)N[C@@H](CC(C)C)C(N)=O [conjugate II, Van-PEG4-TP10]",MIC,"S. aureus MRSA 12673; first block, test a, repetition 1, read-out: MIC1a",1.6 µM
same,MIC,"S. aureus MRSA 12673; first block, test a, repetition 2, read-out: MIC2a",3.2 µM
same,MIC,"S. aureus MRSA 12673; first block, test a, repetition 3, read-out: MIC3a",1.6 µM
same,MIC,"S. aureus MRSA 12673; first block, test b, repetition 1, read-out: MIC1b",1.6 µM
same,MIC,"S. aureus MRSA 12673; first block, test b, repetition 2, read-out: MIC2b",1.6 µM
same,MIC,"S. aureus MRSA 12673; first block, test b, repetition 3, read-out: MIC3b",1.6 µM
same,MIC,"S. aureus MRSA 12673; test a, repetition 1, read-out: MIC1a",6.33 µM
same,MIC,"S. aureus MRSA 12673; test a, repetition 2, read-out: MIC2a",12.66 µM
same,MIC,"S. aureus MRSA 12673; test a, repetition 3, read-out: MIC3a",6.33 µM
same,MIC,"S. aureus MRSA 12673; test b, repetition 1, read-out: MIC1b",6.33 µM
same,MIC,"S. aureus MRSA 12673; test b, repetition 2, read-out: MIC2b",6.33 µM
same,MIC,"S. aureus MRSA 12673; test b, repetition 3, read-out: MIC3b",6.33 µM
same,MIC in (μg/ml),S. aureus MRSA 12673; [6],6.3 ± 2.6 µg/mL
same,MIC,S. aureus MRSA N315; [7],1.6 ± 0.8 µM
same,MIC,S. aureus MRSA N315; [8],1.6 µM
same,MIC,S. aureus MRSA N315; [9],3.2 µM
same,MIC,S. aureus MRSA N315; [10],1.6 µM
same,MIC,S. aureus MRSA N315; [11],1.6 µM
same,MIC,S. aureus MRSA N315; [12],3.2 µM
same,MIC,S. aureus MRSA N315; [13],1.6 µM
same,MIC,S. aureus MRSA N315; [14],6.33 µM
same,MIC,S. aureus MRSA N315; [15],12.66 µM
same,MIC,S. aureus MRSA N315; [16],6.33 µM
same,MIC,S. aureus MRSA N315; [17],6.33 µM
same,MIC,S. aureus MRSA N315; [18],6.33 µM
same,MIC,S. aureus MRSA N315; [19],6.33 µM
same,MIC in (μg/ml),S. aureus MRSA N315; [6],6.3 ± 2.6 µg/mL
same,MIC,[1]; [7],3.1 ± 0.8 µM
same,MIC,[1]; [8],3.1 µM
same,MIC,[1]; [9],3.1 µM
same,MIC,[1]; [10],1.56 µM
same,MIC,[1]; [11],1.56 µM
same,MIC,[1]; [12],3.1 µM
same,MIC,[1]; [13],1.56 µM
same,MIC,[1]; [14],12.26 µM
same,MIC,[1]; [15],12.26 µM
same,MIC,[1]; [16],6.13 µM
same,MIC,[1]; [17],6.13 µM
same,MIC,[1]; [18],12.26 µM
same,MIC,[1]; [19],6.13 µM
same,MIC in (μg/ml),[1]; [6],12.3 ± 3.6 µg/mL
same,MIC,[2]; [7],25.0 ± 6.5 µM
same,MIC,[2]; [8],25 µM
same,MIC,[2]; [9],25 µM
same,MIC,[2]; [10],12.5 µM
same,MIC,[2]; [11],12.5 µM
same,MIC,[2]; [12],25 µM
same,MIC,[2]; [13],25 µM
same,MIC,[2]; [14],98.91 µM
same,MIC,[2]; [15],98.91 µM
same,MIC,[2]; [17],98.91 µM
same,MIC,[2]; [18],98.91 µM
same,MIC,[2]; [19],98.91 µM
same,MIC in (μg/ml),[2]; [6],98.9 ± 21.8 µg/mL
same,MIC,[3]; [7],25.0 ± 5.1 µM
same,MIC,[3]; [8],25 µM
same,MIC,[3]; [9],25 µM
same,MIC,[3]; [10],12.5 µM
same,MIC,[3]; [11],25 µM
same,MIC,[3]; [12],25 µM
same,MIC,[3]; [13],25 µM
same,MIC,[3]; [14],98.91 µM
same,MIC,[3]; [15],98.91 µM
same,MIC,[3]; [16],49.46 µM
same,MIC,[3]; [17],98.91 µM
same,MIC,[3]; [18],98.91 µM
same,MIC,[3]; [19],98.91 µM
same,MIC in (μg/ml),[3]; [6],98.9 ± 20.2 µg/mL
same,cell lysis (haemolysis),sheep erythrocytes; 12.5 µM,5%
same,cell lysis (haemolysis),sheep erythrocytes; 100 µM,77%
same,hemolysis at MIC concentrations,sheep erythrocytes; 6.25–0.78 μM,lack of hemolysis
same,MIC (marked in raw data),[4],"1,56 µM"
Fl-[Lys^7(PEG4-Van)]TP10 [conjugate IVa],presence in mouse brain slices (fluorescence),[5],presence of the conjugate coupled with fluorescein in the brain
